Several values for one entry are separate records, joined by “and”; a condition that tells them apart may be missing. Identical values can stand only once. Like-named read-outs stand apart in the source and are kept apart here.
What was measured:
Human plasma = test: Ultracentrifugation plasma protein binding assay, human plasma; type: in vitro ADME; conditions: 10000 nM
Experimental: (§1) Information on the chemicals and materials used in the plasma protein binding work can be found in Supplementary Text S10 and Table S3. Human and rodent plasma were evaluated for plasma protein binding using ultracentrifugation, as previously described. Working solutions of 3 mM of HFPO-DA, HFPO-TA, and HFPO-TeA were prepared separately in ethanol, with each working solution containing 3 mM of testosterone (Sigma-Aldrich; ≥98% pure) as a reference compound for assay performance. An aliquot of each stock solution (13.3 µL) was added to separate 15 mL tubes with 3.987 mL of plasma for a final assay concentration of 10 µM. The plasma solutions were incubated at 37 °C and 125 rpm for 60 min. One-hour stability samples (T60 min) were drawn in triplicate and diluted in four volumes of plasma ultrafiltrate. Aliquots (1 mL) from each plasma solution were drawn in triplicate and transferred to polycarbonate tubing. These samples underwent ultracentrifugation (Beckman OptimaMax; Beckman Coulter Inc., Brea, CA, USA) at 850,000× g for 4 h at 37 °C.
(§2) The remaining plasma solutions were returned for incubation at 37 °C and 125 rpm for an additional 4 h. Five-hour stability samples (T300 min) were then drawn in triplicate and diluted in four volumes of plasma ultrafiltrate. After ultracentrifugation, the aqueous fraction (AF) was collected by transferring the supernatant to a new tube and diluting in an equal volume of plasma for matrix matching. All samples were combined with 3 volumes of ice-cold ACN containing 16 ng/mL of ^13C3-HFPO-DA and 16 ng/mL of ^13C-Testosterone (Cambridge Isotope Laboratories; 98% pure). Samples were vigorously mixed, stored for 10 min at −20 °C, and then centrifuged at 12,000× g for 10 min at 4 °C. Supernatants were collected then stored at −70 °C prior to analysis.
(§3) Fraction unbound (fu) in plasma (fup) and percent stability calculations are detailed in Supplementary Text S10. Hepatic clearance, the fu in blood (fub) (fu in plasma adjusted for blood:plasma partitioning), and renal clearance were used to derive the steady-state concentration (Css) of each compound that will be used for in vitro–in vivo extrapolation (IVIVE). Renal clearance was calculated using the glomerular filtration rate (a species-dependent constant) and the fub. The Css calculation is detailed in Supplementary Text S11.
(§4) The gradient is available in Table S11. […]
(§5) Chemical stability in plasma was assessed
(§6) (F) Percent Stability = T300minutesT60minutes∗100

[1] = as above; type: in vitro ADME; conditions: both sexes, human
Experimental: as §1, §2, §3, §4, §5, §6

rat hepatocytes = test: Hepatocyte metabolic stability (clearance) assay, rat hepatocytes
Experimental: (§7) Information on the chemicals and materials used in the hepatocyte metabolic work can be found in Supplementary Text S9 and Table S3. In vitro evaluations of hepatocyte metabolic stability were performed in human and rat hepatocytes, as previously described. Briefly, pooled, cryopreserved hepatocyte suspensions were thawed, assessed for viability, and then diluted in William’s medium E containing dexamethasone and cell maintenance cocktail B to achieve a cell density of 50,000 cells/100 µL. The assay was started by adding hepatocyte suspensions to wells of 96-well polypropylene plates containing an equal volume of media with 2 µM of analyte (final assay concentration: 1 µM). Plates were placed in a 37 °C cell culture incubator (5% CO2) on a shaker set to 200 rpm. Time points assessed were T0, T15, T30, T60, T120, and T240 min. At each time point, the plates were removed from the shaker and the incubates were crashed with an equal volume of ice-cold ACN containing 1.2% FA and 16 ng/mL of ^13C3 -HFPO-DA. After chilling and centrifugation at 4122× g, the supernatants were transferred to new collection plates and stored at −70 °C until analysis for the parent compound on the Waters instrumentation described below. Immediately prior to analysis, samples were thawed, vortexed, and centrifuged at 4200× g, and then diluted 1:4 in 95:5 H2O/ACN with 2.5 mM of ammonium acetate. Negative controls, including no cell controls and metabolically inactivated hepatocytes, were run concurrently to assess the chemical stability over the time course.
(§8) Intrinsic clearance (Clint; hepatic clearance) calculations are detailed in Supplementary Text S9 [57].
(§9) Targeted, quantitative analysis of in vitro hepatocyte metabolic stability and plasma protein binding assay samples was conducted on a Waters Xevo-TQS micro mass spectrometer (Waters, Milford, MA, USA) ultra-high-performance liquid chromatography tandem mass spectrometry system (UPLC-MS/MS), modified with a PFAS analysis kit. Samples were analyzed in negative ion mode with UniSpray ionization. A CORTECS T3 column (Waters CORTECS, 3 × 100 mm, particle size 2.7 µm) was used for chromatographic separation with a flow rate of 0.6 mL/min and a temperature of 55 °C. Gradient elution was used with eluent A (95:5 H2O/ACN) and eluent B (95:5 ACN/H2O) with 2.5 mM of ammonium acetate. The gradient is available in Table S11. Additional details for MS parameters are found in Table S12 and monitored transitions are found in Table S13.
(§10) Table S2: Data processing parameters used with Sciex MarkerView 1.3.1.
(§11) Support ing Text S9: Hepatocyte Metabolic Stability Assay Materials, Chemicals, and Calculations
(§12) Pooled human and rat cryopreserved primary hepatocyte suspensions were both obtained from
(§13) BioIVT, a US Food and Drug Administration-licensed and inspected donor center, and produced using
(§14) non-transplantable tissue.
(§15) William’s E media, dexamet hasone (98% pure), and cell maintenance cocktail B were obtained from
(§16) Thermo Fisher Scientific (Waltham, MA, USA), the OptiThaw hepatocyte kit from Sekisui/Xenotech
(§17) (Tokyo, Japan), and the trypan blue s (Sekisui/ Xenotech, Tokyo, Japan) and the trypan blue solution from […]

human hepatocytes = test: Hepatocyte metabolic stability (clearance) assay, human hepatocytes; conditions: for Negative Control Data, No cells (NC), Ln Concentration / Negative Control Data, Heat Treated (HT), Ln Concentration / Ln Concentration: Rep 1-3
Experimental: as §7, §8, §9, §10, §11, §12, §13, §14, §15, §16, §17

**Q.** Which “Average Stability (T5hr/ T1hr)” value (Human plasma; 37 °C) does the source give for `O=C(O)C(F)(OC(F)(F)C(F)(OC(F)(F)C(F)(OC(F)(F)C(F)(F)C(F)(F)F)C(F)(F)F)C(F)(F)F)C(F)(F)F` (centres unmarked) [HFPO-TeA, perfluoro-(2,5,8-trimethyl-3,6,9-trioxadodecanoic) acid] here?
**A.** 1.0363

**Q.** And the “Aqueous Fraction concentration” value (Human plasma; after ultracentrifugation, replicates A-C)?
**A.** 83.20 nM and 80 nM and 121.60 nM

**Q.** What about the “Fraction Unbound in plasma (fup)” value (Human plasma; replicates A-C) of the same molecule?
**A.** 0.0109 and 0.0142

**Q.** And the “Stability (T5hr/ T1hr)” value (Human plasma; replicates A-C)?
**A.** 0.9304 and 0.9406 and 1.2379

**Q.** And the “Time 1 hr concentration” value (Human plasma; replicates A-C)?
**A.** 7.36 µM and 7.808 µM and 6.928 µM

**Q.** What about the “Time 5 hr concentration” value (Human plasma; replicates A-C) of the same molecule?
**A.** 6.848 µM and 7.344 µM and 8.576 µM

**Q.** And the fraction unbound at 4 h, 10 µM ([1]; plasma, 10 µM, ultracentrifugation, read-out: Experimental fup (average fraction unbound in plasma))?
**A.** 0.0124

**Q.** What about the fraction unbound at 4 h, 10 µM ([1]; pooled human plasma, 10000 nM, replicates A-C, read-out: Fraction Unbound in plasma (fup)) of the same molecule?
**A.** 0.0121

**Q.** What about the “Negative Control Data, Heat Treated (HT), 15 min” value (rat hepatocytes; heat treated rat hepatocytes, 1000 nM, 15 min, Ln concentration, Rep 1-3) of the same molecule?
**A.** 2.6401 and 2.4357 and 2.5979

**Q.** And the “Negative Control Data, Heat Treated (HT), 240 min” value (rat hepatocytes; heat treated rat hepatocytes, 1000 nM, 240 min, Ln concentration, Rep 1-3)?
**A.** 3.3942 and 3.4965 and 3.9620

**Q.** What about the “Negative Control Data, No cells (NC), 15 min” value (rat hepatocytes; no cells, 1000 nM, 15 min, Ln concentration, Rep 1-3) of the same molecule?
**A.** 2.6401 and 2.4357 and 2.5979

**Q.** What about the “Negative Control Data, No cells (NC), 240 min” value (rat hepatocytes; no cells, 1000 nM, 240 min, Ln concentration, Rep 1-3) of the same molecule?
**A.** 3.6957 and 3.6025 and 3.5122

**Q.** And the Clin vitro (rat hepatocytes; rat hepatocytes, 1 µM)?
**A.** 0 µL/min/106 cells

**Q.** What about the “Ln Concentration, 0 min” value (rat hepatocytes; suspended rat hepatocytes, 1000 nM, time 0 min, Rep 1-3) of the same molecule?
**A.** 3.0306 and 2.9008 and 2.9997

**Q.** What about the “Ln Concentration, 15 min” value (rat hepatocytes; suspended rat hepatocytes, 1000 nM, time 15 min, Rep 1-3) of the same molecule?
**A.** 3.0932 and 2.2706 and 2.9515

**Q.** And the “Ln Concentration, 30 min” value (rat hepatocytes; suspended rat hepatocytes, 1000 nM, time 30 min, Rep 1-3)?
**A.** 4.2083 and 3.3638 and 2.7617

**Q.** What about the “Ln Concentration, 60 min” value (rat hepatocytes; suspended rat hepatocytes, 1000 nM, time 60 min, Rep 1-3) of the same molecule?
**A.** 3.2078 and 2.9997 and 2.8429

**Q.** What about the “Ln Concentration, 120 min” value (rat hepatocytes; suspended rat hepatocytes, 1000 nM, time 120 min, Rep 1-3) of the same molecule?
**A.** 4.0404 and 3.2267 and 2.8611

**Q.** And the “Ln Concentration, 240 min” value (rat hepatocytes; suspended rat hepatocytes, 1000 nM, time 240 min, Rep 1-3)?
**A.** 4.3810 and 4.0785 and 4.0446

**Q.** And the “Linear Regression Best-Fit Slope (Ln concentration vs time)” value (rat hepatocytes; suspended rat hepatocytes, 1000 nM, time in min)?
**A.** 0.001258

**Q.** What about the “Negative Control Data, No cells (NC), Ln Concentration” value (human hepatocytes; 1000 nM, 15 min) of the same molecule?
**A.** 3.2431 and 3.8547 and 4.8392

**Q.** What about the “Negative Control Data, No cells (NC), Ln Concentration” value (human hepatocytes; 1000 nM, 240 min) of the same molecule?
**A.** 4.3983 and 4.1513 and 4.1952

**Q.** What about the Clin vitro (human hepatocytes; human hepatocytes, 1 µM) of the same molecule?
**A.** 0 µL/min/106 cells

**Q.** What about the “Negative Control Data, Heat Treated (HT), Ln Concentration” value (human hepatocytes; human hepatocytes, 1000 nM, 15 min) of the same molecule?
**A.** 3.2431 and 3.8547 and 4.8392

**Q.** What about the “Negative Control Data, Heat Treated (HT), Ln Concentration” value (human hepatocytes; human hepatocytes, 1000 nM, 240 min) of the same molecule?
**A.** 3.9071 and 4.4271 and 4.0870

**Q.** What about the “Ln Concentration” value (human hepatocytes; human hepatocytes, 1000 nM, time 0 min) of the same molecule?
**A.** 4.4318 and 4.5113 and 4.4280

**Q.** And the “Ln Concentration” value (human hepatocytes; human hepatocytes, 1000 nM, time 15 min)?
**A.** 4.5753 and 4.4697 and 3.8582

**Q.** And the “Ln Concentration” value (human hepatocytes; human hepatocytes, 1000 nM, time 30 min)?
**A.** 3.6875 and 3.5788 and 3.6553

**Q.** And the “Ln Concentration” value (human hepatocytes; human hepatocytes, 1000 nM, time 60 min)?
**A.** 3.0465 and 3.5032 and 3.8121

**Q.** And the “Ln Concentration” value (human hepatocytes; human hepatocytes, 1000 nM, time 120 min)?
**A.** 4.2197 and 4.3067 and 4.1488

**Q.** And the “Ln Concentration” value (human hepatocytes; human hepatocytes, 1000 nM, time 240 min)?
**A.** 3.9567 and 3.8156 and 4.0422

**Q.** What about the “Linear Regression Best-Fit Slope (ln concentration vs time)” value (human hepatocytes; human hepatocytes, 1000 nM, time in min) of the same molecule?
**A.** 0.001224

— article PMC10747602, “Dose Response, Dosimetric, and Metabolic Evaluations of Replacement PFAS Perfluoro-(2,5,8-trimethyl-3,6,9-trioxadodecanoic) Acid (HFPO-TeA)” (Toxics, 2023)
